For one data set, the system named is ddY-type mice. As to the kind of experiment: Analgesic efficacy test (1): acetic acid writhing test (nociceptive pain model animal). As to conditions: Mus musculus, 25 min, writhing number, male ddY mice, acetic acid i.p. 25 min after administration, mean ± standard error, read-out: Percent Suppression (%); for inhibition in vivo at 10 mg/kg: oral single dose 10 mg/kg; for inhibition in vivo at 100 mg/kg: oral single dose 100 mg/kg. The data set is classed as in vivo. The text has this:
A compound of the present invention was orally administered to mice, to carry out an analgesic efficacy test according to acetic acid writhing test (nociceptive pain model animal). As an experimental animal, 4-week old male ddY-type mice were previously bred, and thereafter 8 mice per one group were used in the experiment. A solution or suspension prepared by dissolving or suspending a compound of the present invention in a 0.5% (w/v) aqueous CMC-Na solution was orally administered as a test substance in a single dose. While, to a control group, a 0.5% (w/v) aqueous CMC-Na solution was administered in the same manner. After 25 minutes from administration, the mice were intraperitoneally administered with a 0.7% (v/v) acetic acid/physiological saline at the dose of 10 mL/kg. From 5 minutes thereafter, writhing number in a 10-minute period was counted, and a suppressive rate for each individual (mean±standard error) was calculated by the following formula: […]
In the test for significance difference, Baltlett's test was carried out in the comparison between multiple groups of the group administered with test substance with the control group. In the case of homoscedasticity, Dunnett's multiple comparison test of parametrics, and in the case of heteroscedasticity, Dunnett's multiple comparison test of non-parametrics were used. In addition, in the test of dose dependency, Jockheere-Terpstra's test was used. In all cases, significance difference was considered to be found at P<0.05.
Background: Writhing tests count abdominal constrictions after an irritant is injected.

Data set [1] is described as follows: Test of blood kinetics in the rats. Format: in vivo. As to conditions: rat, plasma, 2 mg/kg, fasted Wistar male rats, oral single dose of mixed solution of five compounds, each compound 2 mg/5 mL/kg, n=5, LC-MS; for AUC(0-inf): read-out: AUC0-∞ (area under the curve for concentration in blood, time 0 to infinite hours); for Cmax: read-out: Cmax (maximum concentration in plasma). How it is done:
Ten milligrams of a compound of the present invention was properly converted to a sodium salt with the same amount of sodium hydroxide, where necessary, and each was dissolved in 5 mL of water. Five compounds each among these aqueous solutions of the compounds of the present inventions were mixed, to prepare a mixed solution containing 0.4 mg/mL each of each compound. Six-week old Wistar SPF male rats that were fasted were orally administered with the mixed solution in a single dose using a gavage tube (each compound 2 mg/5 mL/kg, n=5). At time points of 0.25, 0.5, 1, 2, 4, and 8 hours after the administration, about 150 μL of blood was collected using a heparin-added capillary tube from veins of rat tails. The capillary tubes were centrifuged to collect the plasma. The plasma sample was deprotenized and the supernatant was diluted to prepare each of measurement sample solutions. The concentration of the compound of the present invention in each of measurement sample solutions was quantified using LC-MS, and Cmax (maximum concentration in plasma) and AUC (area under the curve for concentration in blood, time 0 to infinite (∞) hours) of the compounds of the present invention were calculated.

Where a name gives a salt, the structure may show the parent alone.

As for `COc1ccc(C[C@H](NC(=O)C=Cc2cccc(O)c2)C(=O)O)cc1` [Compound 43, N-[3-(3-Hydroxyphenyl)acryloyl]-O^4-methyl-L-tyrosine], in the data set on ddY-type mice, the inhibition in vivo at 10 mg/kg came to 45.3 ± 10.8%.

Turning to `COc1ccc(C[C@H](NC(=O)C=Cc2cc(F)ccc2F)C(=O)O)cc1` [Compound 52, N-[3-(2,5-Difluorophenyl)acryloyl]-O^4-methyl-L-tyrosine], in the data set with ddY-type mice (oral single dose 3 mg/kg), the inhibition in vivo at 3 mg/kg is 50.9 ± 7.4%. Further, in data set [1], the AUC(0-inf) was 38200 ng·h/mL and the Cmax was 18000 ng/mL.

In the case of `COc1ccc(C[C@H](NC(=O)C=Cc2cc(C(F)(F)F)cc(C(F)(F)F)c2)C(=O)O)cc1` [Compound 53, N-{3-[3,5-Bis(trifluoromethyl)phenyl]acryloyl}-O^4-methyl-L-tyrosine], the inhibition in vivo at 100 mg/kg in the data set with ddY-type mice was 32 ± 14.6%.

With `COc1ccc(C[C@H](NC(=O)C=Cc2ccc(C#N)cc2)C(=O)O)cc1` [Compound 56, N-[3-(4-Cyanophenyl)acryloyl]-O^4-methyl-L-tyrosine], the inhibition in vivo at 100 mg/kg in the data set with ddY-type mice is 48.7 ± 10.1%. Also, in data set [1], the AUC(0-inf) stood at 7000 ng·h/mL and the Cmax is 3500 ng/mL.

With `NCCCC[C@H](NC(=O)C=Cc1ccccc1F)C(=O)O` [Compound 61, N^α-[3-(2-Fluorophenyl)acryloyl]-L-lysine hydrochloride], the inhibition in vivo at 100 mg/kg in the data set on ddY-type mice stood at 40.5 ± 7.8%.

For `Cn1cc(C[C@H](NC(=O)C=Cc2ccccc2O)C(=O)O)c2ccccc21` [Compound 26, N^α-[3-(2-Hydroxyphenyl)acryloyl]-1-methyl-L-tryptophan], the inhibition in vivo at 10 mg/kg with ddY-type mice was found to be 30.5 ± 9.2%.

In the case of `Cn1cc(C[C@H](NC(=O)C=Cc2cccc(C#N)c2)C(=O)O)c2ccccc21` [Compound 34, N^α-[3-(3-Cyanophenyl)acryloyl]-1-methyl-L-tryptophan], the inhibition in vivo at 10 mg/kg in the data set with ddY-type mice was determined as 45.2 ± 6.3%. In data set [1], the AUC(0-inf) came out at 16500 ng·h/mL and the Cmax came out at 3200 ng/mL.

For the molecule `Cn1cc(C[C@H](NC(=O)C=Cc2ccc(C#N)cc2)C(=O)O)c2ccccc21` [Compound 36, N^α-[3-(4-Cyanophenyl)acryloyl]-1-methyl-L-tryptophan], the inhibition in vivo at 10 mg/kg in the data set with ddY-type mice worked out at 49.7 ± 11.3%. In addition, in data set [1], the AUC(0-inf) was determined as 11400 ng·h/mL and the Cmax was 2300 ng/mL.

On to `COc1ccc(C[C@H](NC(=O)C=Cc2c(F)cccc2F)C(=O)O)cc1` [Compound 50, N-[3-(2,6-Difluorophenyl)acryloyl]-O^4-methyl-L-tyrosine], for which, in the data set on ddY-type mice, the inhibition in vivo at 100 mg/kg is 35.1 ± 15.4%.

Turning to `O=C(C=Cc1ccccc1F)N[C@H](Cc1c[nH]c2ccccc12)C(=O)O` [Compound 24, N^α-[3-(2-Fluorophenyl)acryloyl]-D-tryptophan], in the data set with ddY-type mice, the inhibition in vivo at 10 mg/kg worked out at 35.8 ± 9.3%. Also, in data set [1], the AUC(0-inf) worked out at 148000 ng·h/mL and the Cmax was found to be 15000 ng/mL.

Take `COc1ccc(C[C@H](NC(=O)C=Cc2ccccc2Cl)C(=O)O)cc1` [Compound 49, N-[3-(2-Chlorophenyl)acryloyl]-O^4-methyl-L-tyrosine]: the inhibition in vivo at 100 mg/kg with ddY-type mice came to 31.8 ± 7%.

In the case of `O=C(C=Cc1cccc(O)c1)N[C@@H](Cc1c[nH]c2ccccc12)C(=O)O` [Compound 6, N^α-[3-(3-Hydroxyphenyl)acryloyl]-L-tryptophan], the inhibition in vivo at 100 mg/kg in the data set with ddY-type mice came out at 39.2 ± 15.4%.

For the molecule `COc1ccc(C[C@H](NC(=O)C=Cc2ccccc2OC)C(=O)O)cc1` [Compound 48, N-[3-(2-Methoxyphenyl)acryloyl]-O^4-methyl-L-tyrosine], the inhibition in vivo at 10 mg/kg in the data set on ddY-type mice is 43.2 ± 7.3%.

With `Cn1cc(C[C@H](NC(=O)C(C#N)=Cc2ccccc2F)C(=O)O)c2ccccc21` [Compound 37, N^α-[2-Cyano-3-(2-fluorophenyl)acryloyl]-1-methyl-L-tryptophan], the inhibition in vivo at 10 mg/kg with ddY-type mice came out at 37.9 ± 7.5%. Also, in data set [1], the AUC(0-inf) was 6800 ng·h/mL and the Cmax was determined as 1500 ng/mL.

In the case of `NCCC[C@H](NC(=O)C=Cc1ccccc1F)C(=O)O` [Compound 63, N^α-[3-(2-Fluorophenyl)acryloyl]-L-ornithine hydrochloride], the inhibition in vivo at 10 mg/kg in the data set with ddY-type mice was found to be 41.1 ± 7.8%.

Consider `O=C(C=Cc1ccccc1F)N[C@@H](Cc1ccc(O)cc1)C(=O)O` [Compound 62, N-[3-(2-Fluorophenyl)acryloyl]-L-tyrosine], for which the inhibition in vivo at 10 mg/kg in the data set with ddY-type mice amounted to 39.2 ± 13.5%.

As to `COc1ccc(C[C@H](NC(=O)C=Cc2ccccc2C(F)(F)F)C(=O)O)cc1` [Compound 47, O^4-Methyl-N-[3-(2-Trifluoromethylphenyl)acryloyl]-L-Tyrosine], the inhibition in vivo at 100 mg/kg in the data set on ddY-type mice is 36.2 ± 11.2%.

As to `COc1ccc(C[C@H](NC(=O)C=Cc2cccc(F)c2)C(=O)O)cc1` [Compound 41, N-[3-(3-Fluorophenyl)acryloyl]-O^4-methyl-L-tyrosine], in the data set on ddY-type mice, the inhibition in vivo at 100 mg/kg came out at 47.3 ± 15.7%.

Turning to `O=C(C=Cc1ccccc1Cl)N[C@@H](Cc1c[nH]c2ccccc12)C(=O)O` [Compound 12, N^α-[3-(2-Chlorophenyl)acryloyl]-L-tryptophan], the inhibition in vivo at 100 mg/kg in the data set on ddY-type mice came to 34.9 ± 11.5%.

For `O=C(C=Cc1ccc(O)cc1)N[C@@H](Cc1c[nH]c2ccccc12)C(=O)O` [Compound 7, N^α-[3-(4-Hydroxyphenyl)acryloyl]-L-tryptophan], in the data set on ddY-type mice, the inhibition in vivo at 100 mg/kg came to 37.3 ± 11.8%.

On to `NC(=O)CC[C@H](NC(=O)C=Cc1ccccc1F)C(=O)O` [Compound 65, N^α-[3-(2-Fluorophenyl)acryloyl]-L-glutamine], for which the inhibition in vivo at 100 mg/kg in the data set on ddY-type mice came to 31.6 ± 13.1%.

`O=C(C=Cc1ccccc1F)N[C@@H](CO)C(=O)O` [Compound 66, N-[3-(2-Fluorophenyl)acryloyl]-L-serine]: in the data set on ddY-type mice, the inhibition in vivo at 100 mg/kg worked out at 56 ± 6.9%.

In the case of `Cn1cc(C[C@H](NC(=O)C=Cc2ccc(Oc3ccccc3)cc2)C(=O)O)c2ccccc21` [Compound 35, 1-Methyl-N^α-[3-(4-phenoxyphenyl)acryloyl]-L-tryptophan], in the data set on ddY-type mice, the inhibition in vivo at 100 mg/kg worked out at 55.2 ± 7.4%.

For the molecule `COc1ccc(C[C@H](NC(=O)C=Cc2ccc(F)cc2)C(=O)O)cc1` [Compound 42, N-[3-(4-Fluorophenyl)acryloyl]-O^4-methyl-L-tyrosine], the inhibition in vivo at 100 mg/kg in the data set on ddY-type mice came out at 52.7 ± 8.3%. In addition, in data set [1], the AUC(0-inf) came out at 57700 ng·h/mL and the Cmax amounted to 18800 ng/mL.

Take `Cn1cc(C[C@H](NC(=O)C=Cc2ccc(F)cc2)C(=O)O)c2ccccc21` [Compound 28, N^α-[3-(4-Fluorophenyl)acryloyl]-1-methyl-L-tryptophan]: the inhibition in vivo at 10 mg/kg in the data set with ddY-type mice is 56.5 ± 5.3%. Also, in data set [1], the AUC(0-inf) is 183000 ng·h/mL and the Cmax came out at 37700 ng/mL.

`N#CC(=Cc1ccccc1)C(=O)N[C@@H](Cc1c[nH]c2ccccc12)C(=O)O` [Compound 25, N^α-(2-Cyano-3-phenylacryloyl)-L-tryptophan]: the inhibition in vivo at 10 mg/kg in the data set on ddY-type mice was 41.2 ± 11.1%. Also, in data set [1], the AUC(0-inf) stood at 6800 ng·h/mL and the Cmax was found to be 1500 ng/mL.

With `Cn1cc(C[C@H](NC(=O)C=Cc2ccccc2C#N)C(=O)O)c2ccccc21` [Compound 30, N^α-[3-(2-Cyanophenyl)acryloyl]-1-methyl-L-tryptophan], the inhibition in vivo at 10 mg/kg with ddY-type mice was 35.8 ± 9.9%. Also, in data set [1], the AUC(0-inf) came out at 13400 ng·h/mL and the Cmax was 3600 ng/mL.

With `Cn1cc(C[C@H](NC(=O)C=Cc2c(F)cccc2F)C(=O)O)c2ccccc21` [Compound 31, N^α-[3-(2,6-Difluorophenyl)acryloyl]-1-methyl-L-tryptophan], the inhibition in vivo at 100 mg/kg in the data set with ddY-type mice is 31.5 ± 9.7%.

Take `COc1ccc(C[C@H](NC(=O)C=Cc2cccc(C#N)c2)C(=O)O)cc1` [Compound 54, N-[3-(3-Cyanophenyl)acryloyl]-O^4-methyl-L-tyrosine]: the inhibition in vivo at 100 mg/kg in the data set with ddY-type mice is 33.3 ± 10%.

`O=Cn1cc(C[C@H](NC(=O)C=Cc2ccccc2F)C(=O)O)c2ccccc21` [Compound 68, N^α-[3-(2-Fluorophenyl)acryloyl]-1-formyl-L-tryptophan]: the inhibition in vivo at 100 mg/kg in the data set on ddY-type mice turned out to be 55.4 ± 9.9%.

With `COc1ccc(C[C@H](NC(=O)C=Cc2ccc(O)cc2)C(=O)O)cc1` [Compound 44, N-[3-(4-Hydroxyphenyl)acryloyl]-O^4-methyl-L-tyrosine], the inhibition in vivo at 10 mg/kg in the data set with ddY-type mice was determined as 48 ± 10.3%.

In the case of `COc1ccc(C[C@H](NC(=O)C=Cc2ccccc2C#N)C(=O)O)cc1` [Compound 46, N-[3-(2-Cyanophenyl)acryloyl]-O^4-methyl-L-tyrosine], the inhibition in vivo at 100 mg/kg with ddY-type mice was 38.7 ± 11.3%.

The record behind these values is patent US9150510B2, “Amino acid derivative” (NIPPON ZOKI PHARMACEUTICAL CO., LTD., priority 2008, dated 2015).
